Where “and” joins values, the source holds several entries; their conditions need not be identical. Identical values can stand only once.
Key:
[1] = tested on: S. furcifera adults; experiment: Y-tube olfactometer behavioral trials; assay type: in vivo, Sogatella furcifera; settings: odorant 50 µL/L vs hexane; adults
Method in brief: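 Single S. furcifera adults (2 days post-emergence, starved 0.5 h) chose between odorant (100 µL of 50 µL/L on filter paper) and hexane control in a glass Y-tube, charcoal-filtered humidified air 300 mL/min per arm, 25 ± 1 °C, 50% RH. Choice scored if insect passed half an arm and stayed >1 min within 10 min; 45 insects per compound, chi-squared test.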

[2] = biological target: SfurOBP11 (Sogatella furcifera, UniProt V5T6E3); experiment: biochemical; assay type: binding
SfurOBP11, sequence (V5T6E3 entry or part of it): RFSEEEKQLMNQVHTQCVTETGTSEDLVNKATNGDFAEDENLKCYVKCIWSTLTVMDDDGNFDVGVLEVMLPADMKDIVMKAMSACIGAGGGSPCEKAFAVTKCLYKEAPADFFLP
Method in brief: (§1)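 Fluorescence competitive binding with 1-NPN as reporter: 2.0 µM protein and 2.0 µM 1-NPN in 50 mM Tris-HCl pH 7.4, odorant added at 2–20 µM final. Excitation 337 nm, emission 390–490 nm read 2 min after addition, triplicates. Ki = IC50/(1 + [1-NPN]/K1-NPN).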

[3] = biological target: SfurOBP3 (Sogatella furcifera, UniProt V5T818); experiment: biochemical; assay type: binding; settings: for Fluorescence competitive binding assay, fluorescence intensity: OBP3, three replicate columns
SfurOBP3, sequence (V5T818 entry or part of it): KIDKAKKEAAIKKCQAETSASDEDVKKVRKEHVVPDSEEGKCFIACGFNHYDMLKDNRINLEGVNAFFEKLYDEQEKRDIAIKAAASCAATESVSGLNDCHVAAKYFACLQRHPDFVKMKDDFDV
Method in brief: as §1

[4] = biological target: SfurOBP2 (Sogatella furcifera, UniProt V5T759); experiment: biochemical; assay type: binding
SfurOBP2, sequence (V5T759 entry or part of it): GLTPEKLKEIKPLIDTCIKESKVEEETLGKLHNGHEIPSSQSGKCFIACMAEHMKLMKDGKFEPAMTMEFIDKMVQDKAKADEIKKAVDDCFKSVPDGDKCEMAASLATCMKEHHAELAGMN
Method in brief: as §1

[5] = biological target: SfurOBP1 (Sogatella furcifera, UniProt V5T8N5); experiment: biochemical; assay type: binding; settings: for Fluorescence competitive binding assay, fluorescence intensity: OBP1, three replicate columns
SfurOBP1, sequence (V5T8N5 entry or part of it): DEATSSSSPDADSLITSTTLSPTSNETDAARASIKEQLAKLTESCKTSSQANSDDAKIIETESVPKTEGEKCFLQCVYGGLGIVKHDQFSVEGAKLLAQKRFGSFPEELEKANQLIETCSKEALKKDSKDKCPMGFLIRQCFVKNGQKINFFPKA
Method in brief: as §1

OC1CCCCC1 [cyclohexanol]
number of insects choosing hexane arm [1]: 12
number of insects choosing volatilies arm [1]: 7
number of insects failed (no choice) [1]: 21
IC50 [2]: > 20 µM
Fluorescence intensity, fluorescence competitive binding assay, OBP11 ([2]; ligand concentration 2, replicate 1): 24375
Fluorescence intensity, fluorescence competitive binding assay, OBP11 ([2]; ligand concentration 2, replicate 2): 24650
Fluorescence intensity, fluorescence competitive binding assay, OBP11 ([2]; ligand concentration 2, replicate 3): 24939
Fluorescence intensity, fluorescence competitive binding assay, OBP11 ([2]; ligand concentration 4, replicate 1): 24494
Fluorescence intensity, fluorescence competitive binding assay, OBP11 ([2]; ligand concentration 4, replicate 2): 24823
Fluorescence intensity, fluorescence competitive binding assay, OBP11 ([2]; ligand concentration 4, replicate 3): 24654
Fluorescence intensity, fluorescence competitive binding assay, OBP11 ([2]; ligand concentration 6, replicate 1): 24316
Fluorescence intensity, fluorescence competitive binding assay, OBP11 ([2]; ligand concentration 6, replicate 2): 24699
Fluorescence intensity, fluorescence competitive binding assay, OBP11 ([2]; ligand concentration 6, replicate 3): 24500
Fluorescence intensity, fluorescence competitive binding assay, OBP11 ([2]; ligand concentration 8, replicate 1): 24760
Fluorescence intensity, fluorescence competitive binding assay, OBP11 ([2]; ligand concentration 8, replicate 2): 24220
Fluorescence intensity, fluorescence competitive binding assay, OBP11 ([2]; ligand concentration 8, replicate 3): 24499
Fluorescence intensity, fluorescence competitive binding assay, OBP11 ([2]; ligand concentration 10, replicate 1): 22885
Fluorescence intensity, fluorescence competitive binding assay, OBP11 ([2]; ligand concentration 10, replicate 2): 23988
Fluorescence intensity, fluorescence competitive binding assay, OBP11 ([2]; ligand concentration 10, replicate 3): 24498
Fluorescence intensity, fluorescence competitive binding assay, OBP11 ([2]; ligand concentration 12, replicate 1): 23691
Fluorescence intensity, fluorescence competitive binding assay, OBP11 ([2]; ligand concentration 12, replicate 2): 23225
Fluorescence intensity, fluorescence competitive binding assay, OBP11 ([2]; ligand concentration 12, replicate 3): 24428
Fluorescence intensity, fluorescence competitive binding assay, OBP11 ([2]; ligand concentration 14, replicate 1): 22556
Fluorescence intensity, fluorescence competitive binding assay, OBP11 ([2]; ligand concentration 14, replicate 2): 23123
Fluorescence intensity, fluorescence competitive binding assay, OBP11 ([2]; ligand concentration 14, replicate 3): 22199
Fluorescence intensity, fluorescence competitive binding assay, OBP11 ([2]; ligand concentration 16, replicate 1): 21391
Fluorescence intensity, fluorescence competitive binding assay, OBP11 ([2]; ligand concentration 16, replicate 2): 22093
Fluorescence intensity, fluorescence competitive binding assay, OBP11 ([2]; ligand concentration 16, replicate 3): 21606
Fluorescence intensity, fluorescence competitive binding assay, OBP11 ([2]; ligand concentration 18, replicate 1): 23329
Fluorescence intensity, fluorescence competitive binding assay, OBP11 ([2]; ligand concentration 18, replicate 2): 23356
Fluorescence intensity, fluorescence competitive binding assay, OBP11 ([2]; ligand concentration 18, replicate 3): 23748
Fluorescence intensity, fluorescence competitive binding assay, OBP11 ([2]; ligand concentration 20, replicate 1): 23863
Fluorescence intensity, fluorescence competitive binding assay, OBP11 ([2]; ligand concentration 20, replicate 2): 23927
Fluorescence intensity, fluorescence competitive binding assay, OBP11 ([2]; ligand concentration 20, replicate 3): 23769
IC50 [3]: > 20 µM
Fluorescence competitive binding assay, fluorescence intensity ([3]; ligand concentration 2): 73467 and 78493 and 77746
Fluorescence competitive binding assay, fluorescence intensity ([3]; ligand concentration 4): 78452 and 70026 and 82856
Fluorescence competitive binding assay, fluorescence intensity ([3]; ligand concentration 6): 79407 and 77940 and 78195
Fluorescence competitive binding assay, fluorescence intensity ([3]; ligand concentration 8): 71546 and 83168 and 84706
Fluorescence competitive binding assay, fluorescence intensity ([3]; ligand concentration 10): 73852 and 75338 and 78193
Fluorescence competitive binding assay, fluorescence intensity ([3]; ligand concentration 12): 65457 and 72548 and 71432
Fluorescence competitive binding assay, fluorescence intensity ([3]; ligand concentration 14): 60072 and 60001 and 71583
Fluorescence competitive binding assay, fluorescence intensity ([3]; ligand concentration 16): 61622 and 57596 and 60550
Fluorescence competitive binding assay, fluorescence intensity ([3]; ligand concentration 18): 75606 and 79879 and 73633
Fluorescence competitive binding assay, fluorescence intensity ([3]; ligand concentration 20): 63397 and 61447 and 55682
IC50 [4]: > 20 µM
Fluorescence competitive binding assay, OBP2 (raw fluorescence reading) ([4]; ligand concentration 2 (unit not given), replicate column 1 of 3): 20258
Fluorescence competitive binding assay, OBP2 (raw fluorescence reading) ([4]; ligand concentration 2 (unit not given), replicate column 2 of 3): 18511
Fluorescence competitive binding assay, OBP2 (raw fluorescence reading) ([4]; ligand concentration 2 (unit not given), replicate column 3 of 3): 18768
Fluorescence competitive binding assay, OBP2 (raw fluorescence reading) ([4]; ligand concentration 4 (unit not given), replicate column 1 of 3): 17006
Fluorescence competitive binding assay, OBP2 (raw fluorescence reading) ([4]; ligand concentration 4 (unit not given), replicate column 2 of 3): 17312
Fluorescence competitive binding assay, OBP2 (raw fluorescence reading) ([4]; ligand concentration 4 (unit not given), replicate column 3 of 3): 19296
Fluorescence competitive binding assay, OBP2 (raw fluorescence reading) ([4]; ligand concentration 6 (unit not given), replicate column 1 of 3): 17760
Fluorescence competitive binding assay, OBP2 (raw fluorescence reading) ([4]; ligand concentration 6 (unit not given), replicate column 2 of 3): 19185
Fluorescence competitive binding assay, OBP2 (raw fluorescence reading) ([4]; ligand concentration 6 (unit not given), replicate column 3 of 3): 18943
Fluorescence competitive binding assay, OBP2 (raw fluorescence reading) ([4]; ligand concentration 8 (unit not given), replicate column 1 of 3): 16983
Fluorescence competitive binding assay, OBP2 (raw fluorescence reading) ([4]; ligand concentration 8 (unit not given), replicate column 2 of 3): 16921
Fluorescence competitive binding assay, OBP2 (raw fluorescence reading) ([4]; ligand concentration 8 (unit not given), replicate column 3 of 3): 18381
Fluorescence competitive binding assay, OBP2 (raw fluorescence reading) ([4]; ligand concentration 10 (unit not given), replicate column 1 of 3): 16551
Fluorescence competitive binding assay, OBP2 (raw fluorescence reading) ([4]; ligand concentration 10 (unit not given), replicate column 2 of 3): 16106
Fluorescence competitive binding assay, OBP2 (raw fluorescence reading) ([4]; ligand concentration 10 (unit not given), replicate column 3 of 3): 17116
Fluorescence competitive binding assay, OBP2 (raw fluorescence reading) ([4]; ligand concentration 12 (unit not given), replicate column 1 of 3): 12653
Fluorescence competitive binding assay, OBP2 (raw fluorescence reading) ([4]; ligand concentration 12 (unit not given), replicate column 2 of 3): 16542
Fluorescence competitive binding assay, OBP2 (raw fluorescence reading) ([4]; ligand concentration 12 (unit not given), replicate column 3 of 3): 15003
Fluorescence competitive binding assay, OBP2 (raw fluorescence reading) ([4]; ligand concentration 14 (unit not given), replicate column 1 of 3): 14815
Fluorescence competitive binding assay, OBP2 (raw fluorescence reading) ([4]; ligand concentration 14 (unit not given), replicate column 2 of 3): 15068
Fluorescence competitive binding assay, OBP2 (raw fluorescence reading) ([4]; ligand concentration 14 (unit not given), replicate column 3 of 3): 14859
Fluorescence competitive binding assay, OBP2 (raw fluorescence reading) ([4]; ligand concentration 16 (unit not given), replicate column 1 of 3): 15306
Fluorescence competitive binding assay, OBP2 (raw fluorescence reading) ([4]; ligand concentration 16 (unit not given), replicate column 2 of 3): 13071
Fluorescence competitive binding assay, OBP2 (raw fluorescence reading) ([4]; ligand concentration 16 (unit not given), replicate column 3 of 3): 13046
Fluorescence competitive binding assay, OBP2 (raw fluorescence reading) ([4]; ligand concentration 18 (unit not given), replicate column 1 of 3): 15697
Fluorescence competitive binding assay, OBP2 (raw fluorescence reading) ([4]; ligand concentration 18 (unit not given), replicate column 2 of 3): 16234
Fluorescence competitive binding assay, OBP2 (raw fluorescence reading) ([4]; ligand concentration 18 (unit not given), replicate column 3 of 3): 16085
Fluorescence competitive binding assay, OBP2 (raw fluorescence reading) ([4]; ligand concentration 20 (unit not given), replicate column 1 of 3): 15959
Fluorescence competitive binding assay, OBP2 (raw fluorescence reading) ([4]; ligand concentration 20 (unit not given), replicate column 2 of 3): 14904
Fluorescence competitive binding assay, OBP2 (raw fluorescence reading) ([4]; ligand concentration 20 (unit not given), replicate column 3 of 3): 13122
IC50 [5]: > 20 µM
Fluorescence competitive binding assay, fluorescence intensity ([5]; ligand concentration 2 (μM)): 5844 and 5673 and 6371
Fluorescence competitive binding assay, fluorescence intensity ([5]; ligand concentration 4 (μM)): 9311 and 8690 and 9932
Fluorescence competitive binding assay, fluorescence intensity ([5]; ligand concentration 6 (μM)): 6443 and 7058 and 7039
Fluorescence competitive binding assay, fluorescence intensity ([5]; ligand concentration 8 (μM)): 6837 and 7313 and 7729
Fluorescence competitive binding assay, fluorescence intensity ([5]; ligand concentration 10 (μM)): 8238 and 7697 and 7236
Fluorescence competitive binding assay, fluorescence intensity ([5]; ligand concentration 12 (μM)): 6489 and 6472 and 7355
Fluorescence competitive binding assay, fluorescence intensity ([5]; ligand concentration 14 (μM)): 7069 and 6354 and 7092
Fluorescence competitive binding assay, fluorescence intensity ([5]; ligand concentration 16 (μM)): 6030 and 6324 and 7260
Fluorescence competitive binding assay, fluorescence intensity ([5]; ligand concentration 18 (μM)): 9356 and 7906 and 7474
Fluorescence competitive binding assay, fluorescence intensity ([5]; ligand concentration 20 (μM)): 8046 and 8689 and 8368
